The source made the active and inactive calls.
Key:
[1] = target: T1, Pancreatic lipase-related protein 2 (Homo sapiens) (UniProt P54317); assay: Inhibition of recombinant HPLRP2 expressed in Pichia pastoris assessed as residual activity at 40 molar excess after 30 mins by mass spectrophotometric analysis in presence of NaTDC
T1 sequence (whole entry): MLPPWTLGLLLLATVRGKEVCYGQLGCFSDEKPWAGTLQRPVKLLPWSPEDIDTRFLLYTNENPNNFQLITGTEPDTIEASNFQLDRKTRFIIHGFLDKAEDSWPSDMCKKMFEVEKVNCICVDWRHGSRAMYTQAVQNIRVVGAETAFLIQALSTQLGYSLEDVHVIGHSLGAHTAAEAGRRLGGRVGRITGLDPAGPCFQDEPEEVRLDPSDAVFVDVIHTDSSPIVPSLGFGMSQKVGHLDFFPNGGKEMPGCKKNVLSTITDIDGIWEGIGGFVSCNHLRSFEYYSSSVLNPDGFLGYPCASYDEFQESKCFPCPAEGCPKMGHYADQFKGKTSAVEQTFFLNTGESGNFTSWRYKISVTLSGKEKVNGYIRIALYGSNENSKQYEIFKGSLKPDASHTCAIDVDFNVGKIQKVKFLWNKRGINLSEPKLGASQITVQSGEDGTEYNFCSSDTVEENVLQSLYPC

[2] = target: T2, Pancreatic lipase-related protein 2 (Cavia porcellus) (UniProt P81139); assay: Inhibition of recombinant GPLRP2 expressed in Aspergillus oryzae assessed as residual activity at 40 molar excess after 30 mins by mass spectrophotometric analysis in presence of NaTDC
T2 sequence (whole entry): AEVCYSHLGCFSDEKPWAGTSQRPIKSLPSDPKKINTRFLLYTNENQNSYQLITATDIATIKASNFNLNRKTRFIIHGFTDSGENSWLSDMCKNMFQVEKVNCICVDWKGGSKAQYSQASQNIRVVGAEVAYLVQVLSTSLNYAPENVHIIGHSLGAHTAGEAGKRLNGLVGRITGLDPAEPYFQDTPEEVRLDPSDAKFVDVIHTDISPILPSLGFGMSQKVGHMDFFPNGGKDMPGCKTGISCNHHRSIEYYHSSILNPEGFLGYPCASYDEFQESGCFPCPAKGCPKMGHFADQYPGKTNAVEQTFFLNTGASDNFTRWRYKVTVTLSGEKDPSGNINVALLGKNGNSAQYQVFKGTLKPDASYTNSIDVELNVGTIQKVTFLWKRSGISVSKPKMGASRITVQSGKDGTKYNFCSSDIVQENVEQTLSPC

[3] = target: T3, Gastric triacylglycerol lipase (Canis lupus familiaris) (UniProt P80035); assay: Inhibition of recombinant DGL expressed in transgenic maize assessed as residual activity at 40 molar excess after 30 mins by mass spectrophotometric analysis in presence of NaTDC
T3 sequence (whole entry): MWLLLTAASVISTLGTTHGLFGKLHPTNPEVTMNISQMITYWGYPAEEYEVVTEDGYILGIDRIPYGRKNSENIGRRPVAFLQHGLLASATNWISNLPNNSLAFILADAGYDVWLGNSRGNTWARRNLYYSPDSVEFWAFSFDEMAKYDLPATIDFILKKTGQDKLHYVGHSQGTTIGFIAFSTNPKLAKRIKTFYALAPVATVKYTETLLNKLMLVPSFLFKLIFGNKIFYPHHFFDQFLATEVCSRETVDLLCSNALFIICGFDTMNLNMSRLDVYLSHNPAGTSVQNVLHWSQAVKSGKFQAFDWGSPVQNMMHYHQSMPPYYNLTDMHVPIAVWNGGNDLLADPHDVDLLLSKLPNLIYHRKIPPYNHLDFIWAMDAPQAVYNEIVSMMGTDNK

Measured: inhibition

COc1nn(-c2cccc(Oc3ccccc3)c2)c(=O)o1
active: [1] | [2] | [3]
